Reference: patent US20160367659A1, “VIRAL PEPTIDES” (EQUIGERMINAL SA, priority 2013, published 2016)
Where a SMILES comes first, the peptide text is derived from it. [ ]: non-standard residue; d: D form. The star is where a group is joined. Sta = CC(C)C[C@H](N)[C@@H](O)CC(=O)O; Isovaleryl = CC(C)CC(=O)*

How the values were obtained:
mab#4G6E4 = assay: ELISA dose response of mab#4G6E4 on peptide-coated wells; format: binding, Mouse
Description: For that, serial dilutions of peptides in duplicates (1:1.3 or 1:1.4 in 0.05M carbonate buffer pH=9.3) ranging between 5 to 500 ng/mL were covalently linked to 96 microwell Poylsorp amino plates (Nunc, Thermofisher) for two hours at room temperature. To remove unbound peptide, plates were washed three times with PBS-Tween20 (0.005%) in an automated Wellwasher apparatus (Thermoscientific). After washing, plates were blocked by adding 300 microliters/well of Superblock T20 in PBS (Thermoscientific, Pierce). Superblock T20 was immediately removed and plates inverted till drying out. After blocked and dried plates were ready for c-ELISA or to be stored at 4-8° C. for further testing. […]
A rapid (2 hours) c-ELISA procedure was performed as follows: 70 ng/mL of mab#4G6E4 alone (50 microliters) diluted in dilution buffer was added to peptide-coated wells and incubated for 1 hour at 37° C. After 1 hour of incubation plates were extensively washed with 300 microliters of PBS-Tween20 (0.05%) for three times. The plate was after that incubated with a secondary goat anti-mouse IgG-HRP (Sigma Aldrich) at 1:2500 dilution and incubated for 30 minutes at 37° C. Plates were washed again four times with 300 microliters of PBS-Tween20 (0.05%) and signal developed by adding 50 microliters of fresh TMB reagent (Sigma Aldrich) for 15 minutes at room temperature. After colour development the reaction was stopped by adding 50 microliters of 1N H2SO4 (Sigma Aldrich). Determination of absorbance was obtained by reading plates at 450 nm in a Multiskan Go ELISA reader (Thermoscientific).
Dose responses curves were analysed by GraphPad Prism 6.0 software by using the four parameter function log(agonist) vs response with a variable slope. […] The Hill slope was very high for both peptides 7.2 for SEQ ID NO: 159 and 6.6 for SEQ ID NO: 20. The results are indicating high affinity between the mab and the peptide sequences (FIG. 6A1).
Furthermore dose response curves were optimized in order to decrease the Hill Slope and turn the assay more sensitive. […]

[1] = system: protease activity of NEV fractions; assay: In vitro protease cleavage activity of NEV viral protein fractions (fluorescence assay); format: biochemical; conditions: inhibitor 10 μM; Phe-Phe substrate pH 3 and 4, HIV substrate 1 pH 5; fractions 12, 15 and 16
Description: To assess for in vitro proteolytic cleavage activity, cell infections were performed in serum free media conditions. Day 5-7 p.i. viral particles were concentrated and extensively washed with HBSS in Vivaspin 100 kDa (Sartorius) columns. Concentrated viral particles were lysed in 0.1% SDS and submitted to analytical size-exclusion chromatography on a Superdex 200 5/150 GL (GE Healthcare Life Sciences) column connected to a Prominence HPLC system (Shimadzu Corporation, Tokyo, Japan). The column was equilibrated in 20 mM phosphate buffer pH 7.5 containing 150 mM NaCl.
The protease activity was determined by fluorescence assays in 96-well plates in a Gemini EM Fluorescence Microplate Reader, using the HIV Protease Substrate 1 Arg-Glu(EDANS)-Ser-Gln-Asn-Tyr-Pro-Ile-Val-Gln-Lys(DABCYL)-Arg (Sigma Aldrich) or the Phe-Phe substrate. For determination of the pH profile, viral particles were assayed for activity at 37° C. in buffers ranging between pH 3 and 6 (50 mM sodium acetate pH 3.0, 4.0, 5.0, and 6.0; 50 mM Tris-HCl […]) containing 100 mM NaCl. To test the specificity of enzymatic cleavage, Indinavir (Sigma Aldrich), a specific inhibitors of HIV protease, or pepstatin were used. The protease was pre-incubated in the presence of the inhibitor. […] The rate of substrate hydrolysis was monitored for 3 hours by the increase of intensity with excitation/emission wavelengths of 328/393 nm.

[2] = 70 ng/mL mab#4G6E4 diluted in 3% BSA, peptide 5 to 500 ng/mL, four parameter fit

## EALDKIEEIQNKNKQKAAAQEQNPPPSVSLRSLFG [SEQ ID NO: 159]
mab#4G6E4; [2]
  EC50: 0.1635 µg/mL
mab#4G6E4; mab#4G6E4 (70 ng/mL) in 0.025% casein blocking instead of 3% BSA
  EC50: 0.059 µg/mL

## QEQNPPPSVSLRSLFGNDPL [SEQ ID NO: 20]
mab#4G6E4; [2]
  EC50: 0.1937 µg/mL

## CC(C)CC(=O)N[C@H](C(=O)N[C@H](C(=O)N[C@@H](CC(C)C)[C@@H](O)CC(=O)N[C@@H](C)C(=O)N[C@@H](CC(C)C)[C@@H](O)CC(=O)O)C(C)C)C(C)C [pepstatin] (Isovaleryl-VV[Sta]A[Sta]-OH)
[1]
  inhibition of the protease activity of NEV fractions: able to inhibit

## CC(C)(C)NC(=O)[C@@H]1CN(Cc2cccnc2)CCN1C[C@@H](O)C[C@@H](Cc1ccccc1)C(=O)N[C@H]1c2ccccc2C[C@H]1O [Indinavir]
[1]
  inhibition of the protease activity of NEV fractions: able to inhibit
